Source: US6653344B2, “Pharmaceutical preparations containing a dibenzocyclooctane lignan derivative for treatment of neurodegenerative disease” (Elcom Bio Technology Co., Ltd., priority 2000, dated 2003)

Assays:
Assay type in all cases: cell-based
[1] = tested on: NMDA-insulted primary cultured rat cortical cells; assay: Neuroprotection against NMDA-induced toxicity, cell viability by MTT assay; conditions: for Viability (%) NMDA-insulted: compound 1 µM for 1 hr, then 50 µM NMDA, 24 hr
Description: (§1) Primary cultures of mixed cortical cells containing both neuron and glia were prepared from fetal rats as described previously (Kim Y C, Kim S R, Markelonis G J and Oh T H (1998) Ginsenosides Rb1 and Rg3 protect cultured rat cortical cells from glutamate-induced neurodegeneration. J. Neurosci. Res. 53: 426-432).
(§2) The cortical cells were plated onto collagen-coated dishes at a density of 1×10^6 cells/ml. The cultured cells were grown in DMEM supplemented with 10% heat-inactivated fetal calf serum, 1 mM sodium pyruvate, 100 IU/ml pecicillin and 100 μg/ml streptomycin at 37° C. in a humidified atmosphere of 95% air/5% CO2. cultures were allowed to mature for 2 weeks before being used for experiments.
(§3) To culture broth of the cortical cells during being cultured, MTT(5 mg/ml) was added by 10% of the culture broth. The broth was cultured for more 3 hours. The formed formazan was dissolved by DMSO and was assayed absorption at 540 nm ((Mosmann T (1983) Rapid colorimetric assay for cellular growth and survival: Application to proliferation and cytotoxicity assays. J. Immuno. Methods 65: 55-61)
(§4) Glutamate receiptor is divided into NMDA receiptor which is activated by NMDA and non-NMDA receiptor which is activated by alpha-amino-3-hydroxy-5-methyl-4-isoxazole and kainic acid (KA). To first cultured cortical cells, the above compounds were each treated. The neuro-protective activities of the compounds were measured, after toxicities were induced by NMDA, the NMDA receiptor agonist, or KA, the non-NMDA receiptor agonist.
(§5) Rat cortical cultures were treated with compounds at the concentration of 1 M for 1 hr. The cultures were then exposed to 50 µM NMDA or 50 µM KA and were maintained for an additional 24 hr. […]. Cell viability was measured by the MTT assay. Optical density of control, NMDA- and KA treated were 1.20±0.10, 0.77±0.05 and 0.85±0.08, respectively. Viability was calculated as the same as Table 1. Values given represent the mean SD (n=3).

[2] = tested on: KA-insulted primary cultured rat cortical cells; assay: Neuroprotection against KA-induced toxicity, cell viability by MTT assay; conditions: for Viability (%) KA-insulted: compound 1 µM for 1 hr, then 50 µM KA, 24 hr
Description: as §1, §2, §3, §4, §5

[3] = tested on: intracellular Ca2+ ([Ca2+]i) in glutamate-damaged primary cultured rat cortical cells; assay: Measurement of Ca2+ concentration in cells (Fura-2 AM); conditions: for Protection ([Ca2+]i): compound 1 M (1 μM) for 1 hr before 100 M glutamate; for Protection ([Ca2+]i) / [Ca2+]i: 24 hr; for [Ca2+]i: compound for 1 hr, control 85.6, glutamate-treated 419.0
Description: Therefore, the effects of Ca^2+ influx by glutamate according to deoxyschizandrin, gomisin N and wuweizisu C were investigated.
(§6) Rat cortical cultures were treated with compounds at the concentration of 1 M for 1 hr before exposure to 100 M glutamate and then maintained for 24 hr. Values given represent the mean SD (n=3).

[4] = tested on: nitric oxide (NO) content in glutamate-damaged primary cultured rat cortical cells; assay: Measurement of nitrite (Griess reagent), NO content; conditions: 24 hr; for Nitrate: compound 1 µM for 1 hr before 100 µM glutamate, control 90.2, glutamate-treated 141.8; for Protection (NO content): compound 1 M (1 μM) for 1 hr before 100 M glutamate
Description: The content of nitrite isolated into culture broth from first cultured cortical cells was assayed by using Griess reagent by Dawson's method (Dawson V L, Brahbhatt H P, Mong J A and Dawson T M (1994) Expression of inducible nitric oxide synthase causes delayed neurotoxicity in primary neuronal-glial cortical cultures. Neuropharmacology 33: 1425-1430).
(§7) In case glutamate is treated to first cultured cortical cells of mice, formation of NO is increased. […] When schizandrin is treated at the 1 μM concentration, it decreased NO content increased by glutamate. […] When deoxyschizandrin, gomisin N and wuweizisu C are treated at 1 uM concentration to first cultured cortical cells toxicity-induced by glutamate, those maintained about 50% of normal state activity of GSH-px and glutathione decreased by glutamate and have protective activity on the activity of antioxidant enzymes.
as §6

[5] = tested on: GSH-px activity in glutamate-injured primary cultured rat cortical cells; assay: Measurement of glutathione peroxidase activity (GSH-px); conditions: 24 hr; for GSH-px: compound 1 µM for 1 hr before 100 µM glutamate, control 18.7, glutamate-treated 9.2; for Protection (GSH-px activity): compound 1 M (1 uM) for 1 hr before 100 M glutamate
Description: (§8) Cells were collected by adding 0.1M potassium phosphate buffer (pH 7.4) to culture-broth-removed remainings from first cultured cortical cells. The collected cells were treated by supersonic wave for 20 seconds and were centrifuged at 4° C. with 3,000 g for 20 minutes to obtain the supernatant.
1 ml solution in test tube comprising 100 mM potassium phosphate buffer (pH 7.4), 1 mM reduced glutathione (GSH), 0.2 mM NADPH, 0.5 mM H2O2 and 1.5 units/ml of GSSG-reductase (GSSG-r) was prepared and 10 μl of cell supernatant was added and reacted. The loss of adsoption at 340 nm was assayed and the activity of GSH-px was measured.
as §7, §6

[6] = tested on: GSH content in glutamate-injured primary cultured rat cortical cells; assay: Measurement of total GSH (GSH+GSSG); conditions: 24 hr; for GSH: compound 1 µM for 1 hr before 100 µM glutamate, control 6.9, glutamate-treated 2.6; for Protection (GSH content): compound 1 M (1 uM) for 1 hr before 100 M glutamate
Description: as §8
In test tube, 70 μl solution containing 0.3 mM NADPH and 5 mM DTNB was prepared 0.100 μl of cell supernatant was added and final content 5 units/ml of GSSG-R was added thereto and was reacted. The increase of adsorption was measured at 412 nm for 1 minute. The content of GSH was converted and obtained by comparing the content of GSH with GSH standard. (Tietze F, Enzymatic method for quantative determination of nanogram amounts of total and oxidized glutathione, Anal Biochem 27: 502-522).
as §7, §6

[7] = tested on: MDA content in glutamate-injured primary cultured rat cortical cells; assay: Measurement of malondialdehyde (MDA) content, lipid peroxidation; conditions: for Protection (MDA content, lipid-peroxidation) / MDA: compound 1 µM for 1 hr before 100 µM glutamate, 24 hr; for MDA: control 70.2, glutamate-treated 198.2
Description: as §8
To 500 μl of cell supernatant, 500 μl of 10% trichroroacetic acid(TCA) was added and leaved for 10 minutes. The precipitated protain was removed by using centrifuge. To the supernatant, final concentration of 0.2% of thiobarbituric acid is added to prepare 1 ml of solution and reacted at 100° C. for 1 hour. Adsorption was measured at 535 nm and converted and obtained by comparing the contents of MDA with 1,1,3,3-tetraethoxypropane as standard. (Yagi K A, 1976, Simple fluorometric assay for lipoperoxide in blood plasma, Biochem Med 15: 212-216).
NO which is over-formed by glutamate and superoxide anion are each combined to form peroxynitrite. (Almeida et al. 1998). Such formed peroxynitrite with free radical which is formed by glutamate toxicity induce oxidative stress on neurons and induce lipid-peroxidation of cells. Wuweizusu C suppressed 67% of lipid-peroxidation induced by glutamate.
as §6

SMILES	neuroprotective activity against toxicity induced by NMDA (in words) [1]	Viability (%) NMDA-insulted [1] [%]	Viability (%) KA-insulted [2] [%]	Protection ([Ca2+]i) [3] [%]	[Ca2+]i [3] [nM]	Nitrate [4] [nM]	Protection (NO content) [4] [%]	GSH-px [5]	Protection (GSH-px activity) [5] [%]	GSH [6] [μmol/mg protein]	Protection (GSH content) [6] [%]	Protection (MDA content, lipid-peroxidation) [7] [%]	MDA [7] [nmol/mg protein]	suppression of lipid-peroxidation induced by glutamate (in words) [7]	other results
COc1c2c(cc3c1-c1c(cc4c(c1OC)OCO4)C[C@H](C)[C@H](C)C3)OCO2 [Wuweizisu C, wuweizisu C]	has neuroprotective activity	52.1 ± 7.1	15.0 ± 3.9	67.9	192.6 ± 9.1	107.6 ± 2.9	65.8	13.9 ± 3.9 μmol NADPH consumed/min/mg pro	49.5	4.4 ± 0.9	41.9	68.7	110.5 ± 9.0	–	Protection (GSH-px activity) ([5]; listed as wuweizisu C): about 50%; Protection (GSH content) ([6]; listed as wuweizisu C): about 50%; Protection (MDA content, lipid-peroxidation) ([7]; listed as Wuweizusu C): 67%
COc1cc2c(c(OC)c1OC)-c1c(cc3c(c1OC)OCO3)C[C@H](C)[C@H](C)C2 [Gomisin N, gomisin N]	relatively better neuroprotective activity	45.5 ± 6.8	25.5 ± 4.5	60.3	218.0 ± 11.9	111.4 ± 3.3	60.2	14.6 ± 4.1 μmol NADPH consumed/min/mg pro	56.8	4.8 ± 1.3	51.2	57.0	125.6 ± 11.1	significantly suppressed	Protection ([Ca2+]i) ([3]; listed as gomisin N): 50.3%; Protection (GSH-px activity) ([5]; listed as gomisin N): about 50%; Protection (GSH content) ([6]; listed as gomisin N): about 50%
COc1cc2c(c(OC)c1OC)-c1c(cc(OC)c(OC)c1OC)C[C@H](C)[C@H](C)C2 [Deoxyschizandrin, deoxyschizandrin]	–	11.0 ± 3.5	38.2 ± 4.2	20.5	350.7 ± 18.2	121.9 ± 3.1	40.2	15.3 ± 3.0 μmol NADPH consumed/min/mg pro	62.1	4.7 ± 1.1	48.8	49.2	135.4 ± 10.7	significantly suppressed	neuroprotective activity against toxicity induced by KA (in words) [2]: selectively neuroprotective activity; effect on Ca2+ influx by glutamate (in words) [3]: did not significantly effect; Protection (GSH-px activity) ([5]; listed as deoxyschizandrin): about 50%; Protection (GSH content) ([6]; listed as deoxyschizandrin): about 50%
